Measurements from patent US11319321B2, “[1,2,4]triazolo[1,5-a]pyrimidine compounds as PDE2 inhibitors” (Janssen Pharmaceutica NV, priority 2016, dated 2022).
Like-named read-outs stand apart in the source and are kept apart here.

Assays:
[1] = biological target: T1, Human recombinant PDE2A (hPDE2A) (Homo sapiens, UniProt O00408); assay: In vitro assay PDE2A (SPA, 3H-cGMP); type: biochemical
T1 construct: made in house; host or cells: Sf9 insect cells (baculovirus)
Protocol: Human recombinant PDE2A (hPDE2A) was expressed in Sf9 cells using a recombinant rPDE10A baculovirus construct. Cells were harvested after 48 h of infection and the hPDE2A protein was purified by metal chelate chromatography on Ni-sepharose 6FF. Tested compounds were dissolved and diluted in 100% DMSO to a concentration 100 fold of the final concentration in the assay. Compound dilutions (0.4 μl) were added in 384 well plates to 20 μl of incubation buffer (50 mM Tris pH 7.8, 8.3 mM MgCl2, 1.7 mM EGTA). 10 μl of hPDE2A enzyme in incubation buffer was added and the reaction was started by addition of 10 μl substrate to a final concentration of 10 μM cGMP and 0.01 μCi ^3H-cGMP. The reaction was incubated for 45 minutes at room temperature. […] After sedimentation of the beads during 30 minutes the radioactivity was measured in a Perkin Elmer Topcount scintillation counter and results were expressed as cpm. For blanc values the enzyme was omitted from the reaction and replaced by incubation buffer. Control values were obtained by addition of a final concentration of 1% DMSO instead of compound.

hPDE3B = assay: In vitro assay PDE3 (SPA, 3H-cAMP); type: biochemical, human; details: 0.4 μM cAMP substrate; for hPDE3B Emax: in % (unit assumed)
hPDE10A2 = hPDE10A2 (Homo sapiens, UniProt Q9Y233); assay: biochemical; details: 60 nM cAMP substrate; for IC50: human clone, read-out: hPDE10A2 or rPDE10A2 pIC50 (converted); for Emax: read-out: hPDE10A2 or rPDE10A2 Emax, human clone
hPDE10A2, sequence (Q9Y233 267-1055): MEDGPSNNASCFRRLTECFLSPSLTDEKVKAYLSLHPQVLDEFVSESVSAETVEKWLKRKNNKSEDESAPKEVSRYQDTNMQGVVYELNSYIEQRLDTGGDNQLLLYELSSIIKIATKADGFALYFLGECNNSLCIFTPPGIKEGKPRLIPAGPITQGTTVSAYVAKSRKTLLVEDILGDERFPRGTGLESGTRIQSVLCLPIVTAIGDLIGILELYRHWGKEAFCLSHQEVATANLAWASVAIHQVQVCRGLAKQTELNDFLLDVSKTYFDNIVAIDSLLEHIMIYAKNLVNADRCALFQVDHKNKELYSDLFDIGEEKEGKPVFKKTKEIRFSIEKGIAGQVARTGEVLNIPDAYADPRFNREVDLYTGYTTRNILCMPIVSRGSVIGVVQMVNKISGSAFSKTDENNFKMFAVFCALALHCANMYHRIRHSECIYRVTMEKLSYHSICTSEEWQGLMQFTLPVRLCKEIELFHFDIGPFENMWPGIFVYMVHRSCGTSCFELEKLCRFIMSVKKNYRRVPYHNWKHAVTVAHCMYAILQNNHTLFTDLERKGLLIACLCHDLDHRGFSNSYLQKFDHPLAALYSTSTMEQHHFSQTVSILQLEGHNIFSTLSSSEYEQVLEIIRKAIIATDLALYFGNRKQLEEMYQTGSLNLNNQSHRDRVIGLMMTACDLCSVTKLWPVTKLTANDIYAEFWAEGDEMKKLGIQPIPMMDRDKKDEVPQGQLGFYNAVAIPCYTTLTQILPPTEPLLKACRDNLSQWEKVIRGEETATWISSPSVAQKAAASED
Protocol: Rat recombinant PDE10A (rPDE10A2) was expressed in Sf9 cells using a recombinant rPDE10A baculovirus construct. Cells were harvested after 48 h of infection and the rPDE10A protein was purified by metal chelate chromatography on Ni-sepharose 6FF. Tested compounds were dissolved and diluted in 100% DMSO to a concentration 100 fold of the final concentration in the assay. Human recombinant PDE10A ([…]) was expressed in Sf9 cells using a recombinant hPDE10A baculovirus that was made and amplified in house. Cells were harvested after 72 h of infection and the hPDE10A protein was purified by metal chelate chromatography on Ni-sepharose. Compound dilutions (0.4 μl) were added in 384 well plates to 20 μl of incubation buffer (50 mM Tris pH 7.8, 8.3 mM MgCl2, 1.7 mM EGTA). 10 μl of rPDE10A or hPDE10A enzyme in incubation buffer was added and the reaction was started by addition of 10 μl substrate to a final concentration of 60 nM cAMP and […] ^3H-cAMP. The reaction was incubated for 60 minutes at room temperature. After incubation, the reaction was stopped with 20 μl of stop solution consisting of 17.8 mg/ml PDE SPA (scintillation proximity assay) beads. After sedimentation of the beads during 30 minutes the radioactivity was measured in a Perkin Elmer Topcount scintillation counter and results were expressed as cpm. For blanc values the enzyme was omitted from the reaction and replaced by incubation buffer. Control values were obtained by addition of a final concentration of 1% DMSO instead of compound. A best fit curve is fitted by a minimum sum of squares method to the plot of % of control value substracted with blanc value versus compound concentration and the half maximal inhibitory concentration (IC50) value is derived from this curve.

[2] = hPDE2A pIC50, 10 μM cGMP substrate
[3] = 10 μM cGMP substrate, read-out: hPDE2A pIC50 (converted)

T1 sequence (O00408 whole entry): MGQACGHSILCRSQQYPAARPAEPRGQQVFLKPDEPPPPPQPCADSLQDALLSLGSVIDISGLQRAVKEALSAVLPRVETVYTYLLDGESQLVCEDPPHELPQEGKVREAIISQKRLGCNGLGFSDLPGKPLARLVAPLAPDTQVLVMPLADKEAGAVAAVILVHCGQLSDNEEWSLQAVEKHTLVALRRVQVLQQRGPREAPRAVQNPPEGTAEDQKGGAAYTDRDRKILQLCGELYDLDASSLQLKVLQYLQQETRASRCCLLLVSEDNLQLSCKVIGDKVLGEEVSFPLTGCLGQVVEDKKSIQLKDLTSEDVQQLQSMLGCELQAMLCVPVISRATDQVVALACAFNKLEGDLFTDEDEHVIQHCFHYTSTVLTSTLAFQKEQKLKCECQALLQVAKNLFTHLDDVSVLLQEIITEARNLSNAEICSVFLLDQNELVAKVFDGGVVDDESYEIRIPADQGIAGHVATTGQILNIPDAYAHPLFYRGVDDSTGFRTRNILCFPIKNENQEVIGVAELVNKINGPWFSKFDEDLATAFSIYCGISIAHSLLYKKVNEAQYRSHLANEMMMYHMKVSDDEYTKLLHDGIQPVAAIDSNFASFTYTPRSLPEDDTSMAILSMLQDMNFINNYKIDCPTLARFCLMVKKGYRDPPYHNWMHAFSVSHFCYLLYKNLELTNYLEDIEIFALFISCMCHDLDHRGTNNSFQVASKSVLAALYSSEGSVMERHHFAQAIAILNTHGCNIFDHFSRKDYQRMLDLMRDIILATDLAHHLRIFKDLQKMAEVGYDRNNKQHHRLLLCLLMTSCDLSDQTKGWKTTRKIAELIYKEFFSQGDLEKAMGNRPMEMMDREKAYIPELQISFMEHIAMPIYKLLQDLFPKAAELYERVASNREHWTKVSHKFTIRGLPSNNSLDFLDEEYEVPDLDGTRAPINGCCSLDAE

Row | SMILES | Emax ([1]; 10 μM cGMP substrate) [%] | IC50 [1, 2] [µM] | hPDE3B pIC50 (hPDE3B) | hPDE3B Emax (hPDE3B) | IC50 (hPDE10A2) [µM] | Emax (hPDE10A2) [%] | IC50 [1] [µM] | IC50 [1, 3] [µM]
1 | C[C@@H]1CCN(CC2CCOCC2)C[C@H]1c1cc(C(F)F)nc2ncnn12.Cl [Compound 26] | 27 | ~3.09 | <5 | 12 | > 10 | 12 |  | 
2 | C[C@H]1CCN(CC2CCOCC2)C[C@@H]1c1cc(C(F)F)nc2ncnn12.Cl [Compound 27] | 20 | ~4.9 | <5 | 3 | > 10 | 11 |  | 
3 | CC(C)CN1CC[C@@H](C)[C@H](c2cc(C(F)F)nc3ncnn23)C1 [Compound 29] | 3 | ~8.71 | <5 | −14 | > 10 | 3 |  | 
4 | C[C@@H]1CCN(Cc2ccc(F)c(C(F)(F)F)c2)C[C@H]1c1cc(C(F)F)nc2ncnn12 [Compound 30] | 99 |  | <5 | 21 | 7.94 | 55 | 0.49 | 
5 | C[C@@H]1CCN(Cc2cn(C)c3ccccc23)C[C@H]1c1cc(C(F)F)nc2ncnn12.Cl [Compound 35] | 102 | 0.0479 | <5 | 22 | 7.59 | 53 |  | 
6 | C[C@@H]1CCN(Cc2cc3ccccc3o2)C[C@H]1c1cc(C(F)F)nc2ncnn12.Cl [Compound 38] | 88 | 0.162 | <5 | 28 | 4.68 | 69 |  | 
7 | C[C@@H]1CCN(Cc2ccc(F)c(F)c2)C[C@H]1c1cc(C(F)F)nc2ncnn12.Cl [Compound 40] | 42 |  | <5 | 10 | > 10 | 35 |  | 1.12
8 | C[C@H]1CCN(Cc2ccc(F)c(F)c2)C[C@@H]1c1cc(C(F)F)nc2ncnn12.Cl [Compound 41] | 33 |  | <5 | 20 | > 10 | 15 |  | 1.95
9 | C[C@@H]1CCN(Cc2ccc(F)c(F)c2)C[C@@H]1c1cc(C(F)F)nc2ncnn12 [Compound 42] | 22 |  | <5 | 19 | > 10 | 45 |  | 3.39
10 | Cc1csc(CN2CC[C@@H](C)[C@H](c3cc(C(F)F)nc4ncnn34)C2)c1.Cl [Compound 43] | 77 | 0.347 | <5 | 0 | 6.92 | 44 |  | 
11 | COc1ccc(CN2CC[C@@H](C)[C@H](c3cc(C(F)F)nc4ncnn34)C2)c(OC)c1.Cl [Compound 45] | 49 | 0.955 | <5 | 6 | > 10 | 37 |  | 
12 | COc1ccc(CN2CC[C@H](C)[C@@H](c3cc(C(F)F)nc4ncnn34)C2)c(OC)c1.Cl [Compound 46] | 9 | 7.24 | <5 | 17 | > 10 | -6 |  | 
13 | COc1ccc(CN2CC[C@@H](C)[C@@H](c3cc(C(F)F)nc4ncnn34)C2)c(OC)c1 [Compound 47] | 25 | ~3.47 | <5 | 27 | > 10 | 37 |  | 
14 | C[C@@H]1CCN(Cc2nn(C)c3ccccc23)C[C@H]1c1cc(C(F)F)nc2ncnn12 [Compound 48] | 96 | 0.977 | <5 | 23 | > 10 | 37 |  | 
15 | Cc1cc(CN2CCC(C)C(F)(c3cc(C(F)F)nc4ncnn34)C2)cc(C)n1 (stereo not drawn) [Compound 51] | 91 | 2.95 | 5.11 | 67 | > 10 | 28 |  | 
16 | Cc1nn(C)cc1CN1CC[C@@H](C)[C@H](c2cc(C(F)F)nc3ncnn23)C1.Cl [Compound 52] | 31 | ~2.34 | <5 | 1 | > 10 | 9 |  | 
17 | C[C@H]1CCN(Cc2cc3ccccc3o2)C[C@@H]1c1cc(C(F)F)nc2ncnn12.Cl [Compound 55] | 25 | 2.24 | <5 | 40 | > 10 | 12 |  | 
18 | Cl.FC(F)Oc1cccc(CN2[C@H]3CC[C@H](c4cc(C(F)F)nc5ncnn45)[C@@H]2CC3)c1 [Compound 56] | 97 |  | <5 | 26 | > 10 | 43 | 0.525 | 
19 | Cl.FC(F)c1cc([C@H]2CC[C@H]3CC[C@@H]2N3Cc2ccc(Cl)c(Cl)c2)n2ncnc2n1 [Compound 57] | 100 |  | <5 | 35 | 7.94 | 58 | 0.105 | 
